# Reference: patent publication US8957013B2 (priority 2007, dated 2015)
# Type: binding
sequence,measurement,value
HPNFSKYILHQR,selectivity for DNT over TNT target,selective for the DNT target
